In patent US20240287037A1, “CYCLOALKYL COMPOUNDS AND PHARMACEUTICAL COMPOSITIONS THAT MODULATE IKZF2” (Plexium, Inc., priority 2021, published 2024):
Where two headings read alike, the source gives them in different places.

What was measured:
[1] = target: human E3 ligase component cereblon (CRBN) (Homo sapiens (Human), UniProt Q96SW2); experiment: Cereblon (CRBN) target engagement, NanoBRET TE Intracellular E3 Ligase Assay in transfected HEK-293T cells
Protocol: HEK-293T cells were harvested ca. 75% confluent with trypsin and plated (500,000 cells/well) in a 6-well tissue culture plate in 2 mL of Dulbecco's Modified Eagle Medium (DMEM)^+10% Fetal Bovine Serum (FBS) and incubated overnight at 37° C.
The NanoLue-CRBN fusion vector (Nluc-CRBN; Promega) contains the coding region of human E3 ligase component cereblon (CRBN) fused to the C-terminus of the NanoLuc luciferase coding region. A mixture of 10 ng Nluc-CRBN and 990 ng DDB1 Expression Vector (Promega) was added to 125 μL Opti-Minimum Essential Medium (Opti-MEM™; Thermo Fisher) along with 2 μL P3000 reagent (Thermo Fisher) in a 1.5 mL epppendorf tube. This solution was added to Lipofectamine 3000 transfection reagent (5 μL; Thermo Fisher) in Opti-MEM (125 μL), mixed well, and incubated for 15 minutes at room temperature. The transfection mixture was added dropwise to cells and incubated overnight at 37° C., 5% CO2. Following transfection, cells were washed once with PBS, and trypsin (250 μL) was added and incubated 30-45 see to dislodge cells. Complete media (2 mL) was added to resuspend cells to form a single cell suspension. Cells were centrifuged at 320×g for 5 min at room temperature, the supernatant was removed, and the cell pellet resuspended in Opti-MEM (3 mL; wash step repeated ×2). After final resuspension in 5 mL Opti-MEM, cells were counted and resuspended at 200,000 cells/mL in Opti-MEM.
Cereblon target engagement was monitored by Bioluminescence Resonance Energy Transfer (BRET) in transfected HEK-293T cells using the NanoBRET TE Intracellular E3 Ligase Assay (Promega). Briefly, 384-well plates (white opaque plates, Corning 3574, low binding surface) were seeded with transfected HEK-293T cells (38 μl/well). 2 μL of 10 μM CRBN tracer (diluted 1:5 in Tracer Dilution Buffer) was added to each well. Plates were centrifuged at 320×g for 1 min at room temperature. […] Plates were shaken for 2 minutes on a microplate shaker to mix compounds. Plates were centrifuged at 320×g for 1 min at room temperature, and subsequently incubated for 2 hours at 37° C.
After incubation, plates were allowed to cool to room temperature for 15 minutes. 20 μL of 3X Complete NanoBRET™ Nano-Glo® Substrate plus Inhibitor Solution (Promega, 1:166 Substrate and 1:500 dilution of Extracellular NanoLuc® Inhibitor diluted in Opti-MEM) were added to each well, Plates were incubated with shaking at room temperature for 3 minutes covered with foil. Plates were read on a CLARIOstar microplate reader (BMG LabTech), measuring at 450 nm (donor emission) and 610 nm (acceptor emission). The IC50 values were determined by regression to best fit four-parameter logistic curves using GraphPad Prism.

IKZF3 (Aiolos) = IKZF3 (Aiolos) (Homo sapiens (Human), UniProt Q96SW2+Q9UKT9); experiment: IKZF3 reporter degradation assay (HEK 293T IKZF3-mNeonGreen reporter cell line); assay type: cell-based; conditions: HEK 293T reporter cells, 24 hour incubation
IKZF3 (Aiolos), sequence (Q9UKT9 whole entry, the tested form may be a part): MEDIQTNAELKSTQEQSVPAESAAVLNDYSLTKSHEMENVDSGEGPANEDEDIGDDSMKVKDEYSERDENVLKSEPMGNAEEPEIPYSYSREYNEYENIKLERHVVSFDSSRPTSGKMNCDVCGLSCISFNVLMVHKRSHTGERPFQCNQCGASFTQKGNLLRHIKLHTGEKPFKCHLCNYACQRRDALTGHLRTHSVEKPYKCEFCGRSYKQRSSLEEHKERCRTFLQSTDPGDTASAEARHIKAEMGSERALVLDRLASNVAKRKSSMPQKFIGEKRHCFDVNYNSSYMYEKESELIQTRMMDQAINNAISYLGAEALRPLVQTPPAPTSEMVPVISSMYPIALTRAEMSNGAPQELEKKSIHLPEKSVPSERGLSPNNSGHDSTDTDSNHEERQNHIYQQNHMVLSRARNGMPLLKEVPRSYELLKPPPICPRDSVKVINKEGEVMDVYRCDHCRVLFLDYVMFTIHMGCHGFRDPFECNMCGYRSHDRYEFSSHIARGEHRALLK
IKZF3 (Aiolos), sequence (Q96SW2 whole entry, the tested form may be a part): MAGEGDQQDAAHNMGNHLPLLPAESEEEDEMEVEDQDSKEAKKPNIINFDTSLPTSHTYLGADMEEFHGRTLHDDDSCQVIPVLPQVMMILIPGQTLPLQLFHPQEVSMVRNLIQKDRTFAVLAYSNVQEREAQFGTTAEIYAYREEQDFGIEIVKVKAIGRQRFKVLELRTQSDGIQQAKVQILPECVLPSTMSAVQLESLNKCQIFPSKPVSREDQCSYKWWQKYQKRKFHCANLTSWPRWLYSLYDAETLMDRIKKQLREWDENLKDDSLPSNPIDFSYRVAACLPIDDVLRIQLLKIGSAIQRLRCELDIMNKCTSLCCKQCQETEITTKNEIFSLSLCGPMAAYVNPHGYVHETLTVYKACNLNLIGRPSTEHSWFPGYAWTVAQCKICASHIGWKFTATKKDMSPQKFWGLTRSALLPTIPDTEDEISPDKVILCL
IKZF3 (Aiolos), sequence (Q16531 whole entry partner, the tested form may be a part): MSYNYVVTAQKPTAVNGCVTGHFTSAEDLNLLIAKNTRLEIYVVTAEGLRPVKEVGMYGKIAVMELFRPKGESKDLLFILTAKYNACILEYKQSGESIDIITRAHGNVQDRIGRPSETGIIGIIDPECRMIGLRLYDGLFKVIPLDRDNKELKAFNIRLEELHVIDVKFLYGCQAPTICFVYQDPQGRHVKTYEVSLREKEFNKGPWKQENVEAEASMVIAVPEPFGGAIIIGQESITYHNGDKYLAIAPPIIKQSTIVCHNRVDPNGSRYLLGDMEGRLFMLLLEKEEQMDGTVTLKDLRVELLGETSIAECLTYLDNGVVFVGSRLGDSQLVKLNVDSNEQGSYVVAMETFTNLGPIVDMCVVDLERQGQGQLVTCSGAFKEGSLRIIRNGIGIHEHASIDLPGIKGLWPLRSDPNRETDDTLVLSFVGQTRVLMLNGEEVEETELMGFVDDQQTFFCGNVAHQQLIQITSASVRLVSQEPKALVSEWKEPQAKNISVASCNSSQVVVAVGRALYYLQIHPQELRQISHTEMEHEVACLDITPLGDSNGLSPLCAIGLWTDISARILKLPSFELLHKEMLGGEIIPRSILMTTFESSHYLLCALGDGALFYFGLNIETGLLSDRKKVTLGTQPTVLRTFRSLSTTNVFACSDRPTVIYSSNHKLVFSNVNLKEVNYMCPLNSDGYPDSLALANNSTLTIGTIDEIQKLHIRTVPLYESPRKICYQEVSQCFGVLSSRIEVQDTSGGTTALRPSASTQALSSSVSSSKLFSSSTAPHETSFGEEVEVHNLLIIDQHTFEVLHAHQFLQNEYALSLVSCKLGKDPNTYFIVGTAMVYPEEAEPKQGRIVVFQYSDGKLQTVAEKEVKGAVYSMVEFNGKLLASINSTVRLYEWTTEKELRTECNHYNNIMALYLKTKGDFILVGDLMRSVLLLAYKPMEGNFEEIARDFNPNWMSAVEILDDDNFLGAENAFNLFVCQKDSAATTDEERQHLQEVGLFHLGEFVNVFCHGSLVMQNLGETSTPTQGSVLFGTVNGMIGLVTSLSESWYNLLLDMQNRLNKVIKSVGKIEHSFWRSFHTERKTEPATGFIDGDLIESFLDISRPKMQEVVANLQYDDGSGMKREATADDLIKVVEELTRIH
Text: Polycistronic plasmids were constructed for the mammalian expression of fluorescent reporter fusions of human transcription factors IKZF1 (Ikaros), IKZF2 (Helios), and IKZF3 (Aiolos). The respective protein sequences had their C-terminal end joined to a GGGGS linker repeated three times followed by mNeonGreen, P2A sequence, and mScarlet. The DNA sequences of the open reading frames are as follows:
IKZF1, IKZF2, and IKZF3 constructs were cloned into the UCOE Hygromycin expression vectors (Millipore Sigma). Reporter constructs were transfected using cationic lipid reagents into adherent HEK 293T cells and stable integrants were selected by treatment with 200 μg/mL hygromycin B. Clonal populations were obtained from the population of stable integrants either by limiting dilution or fluorescence activated cell sorting.
The clonal stable cell lines were maintained under constant 200 μg/mL hygromycin B selection while being passaged for use in the degradation assays. […] The fluorescence intensity of the IKZF1/2/3-mNeonGreen (FITC channel) and mScarlet (PE channel) reporters were routinely analyzed by flow cytometry to confirm consistent expression levels between experiments.
The IKZF1/IKZF2/IKZF3 degradation assays were carried out by harvesting the HEK 293T reporter cell lines and resuspending the cells in media formulated for reduced background fluorescence (FluoroBrite; Thermo Fisher). The respective cell lines were seeded at a density of 4000 cells/well into black-walled 384-well optical grade assay tissue culture plates. The cells were incubated overnight at 37° C. to allow for attachment to the assay plate. Dilutions of the compounds were prepared in DMSO from 10 mM compound stocks. The assay plates were treated with appropriate concentrations of the compounds by dispensing the DMSO dilutions in quadruplicate wells with an upper limit of 0.5% final DMSO.
After 24 hour incubation with the compounds, the assay plates were imaged on an ImageXpress Pico microscopy system (cells maintained at 37° C. during imaging) to obtain the fluorescent readouts. The assay plates were imaged in the FITC and Tetramethylrhodamine (TRITC) channels to obtain the mNeonGreen fluorescence intensity (reporter degradation data) and mScarlet fluorescence intensity (for cell segmentation). 293T-IKZF1 and 293T-IKZF3 reporter cell lines were imaged with exposures of 500 milliseconds (ms) for both FITC and TRITC channels, while the 293T-IKZF2 reporter cell line was imaged with exposures of 1000 ms for FITC and 1250 ms for TRITC. The resulting data was analyzed with Cell Reporter Xpress software using the 2-channel cell scoring analysis with a “percent positive” readout. The TRITC channel was selected for the “nuclei” segmentation with a threshold of 20 while the FITC channel was selected for the “Marker 1” segmentation and a threshold of 100 for the IKZF and IKZF3 reporter lines. […] The minimum segmentation width was set to 6 micrometers and the maximum segmentation width was set to 15 micrometers for all cell lines. The DC50 calculations were determined by regression to best fit four-parameter logistic curves using GraphPad Prism.

human E3 ligase component cereblon (CRBN), sequence (Q96SW2 whole entry): as the sequence (Q96SW2 whole entry, the tested form may be a part) above
human E3 ligase component cereblon (CRBN), sequence (Q16531 whole entry partner): as the sequence (Q16531 whole entry partner, the tested form may be a part) above

EC50 ([1]; Table 3, 2 hours at 37° C., read-out: CRBN Binding EC50): 2 nM
EC50 ([1]; second (untitled) table after Table 3, read-out: CRBN Binding EC50): 2 nM
DC50 (IKZF3 (Aiolos)): > 30000 nM
Structure (SMILES): O=C1CCC(N2Cc3cc(O[C@H]4CCCC[C@@H]4N4CC(C5CCC(F)(F)CC5)C4)ccc3C2=O)C(=O)N1 (stereo partly drawn) [Compound 2, 3-(5-(((1S,2S)-2-(3-(4,4-difluorocyclohexyl)azetidin-1-yl)cyclohexyl)oxy)-1-oxoisoindolin-2-yl)piperidine-2,6-dione]
